According to paper PMC11444863 (Bioscience of Microbiota, Food and Health, 2024):

Target: T1, Hyaluronidase from bovine testes (Bos taurus, UniProt Q2YDK3)
T1 sequence (Q2YDK3 36-553): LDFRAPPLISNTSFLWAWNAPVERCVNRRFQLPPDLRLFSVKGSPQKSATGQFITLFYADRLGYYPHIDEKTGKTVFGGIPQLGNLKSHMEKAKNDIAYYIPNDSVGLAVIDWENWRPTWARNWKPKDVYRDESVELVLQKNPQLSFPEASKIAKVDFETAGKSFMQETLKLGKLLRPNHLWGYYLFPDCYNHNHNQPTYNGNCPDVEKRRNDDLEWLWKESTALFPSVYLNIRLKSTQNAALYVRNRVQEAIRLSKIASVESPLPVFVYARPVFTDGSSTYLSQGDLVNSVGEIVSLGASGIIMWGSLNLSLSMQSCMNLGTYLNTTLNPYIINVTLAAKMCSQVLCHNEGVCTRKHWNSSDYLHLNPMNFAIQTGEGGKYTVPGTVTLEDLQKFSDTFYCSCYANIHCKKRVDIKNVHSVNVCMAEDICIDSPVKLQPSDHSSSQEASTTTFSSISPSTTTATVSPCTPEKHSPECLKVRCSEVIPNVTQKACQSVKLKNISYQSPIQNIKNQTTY
Assay: colorimetric hyaluronidase inhibition assay
Assay type: biochemical

IC50 | Compound
2.82 ± 0.038 mM | O=C(O)CCC(=O)C(=O)O [AKG, α-ketoglutarate]
0.36 ± 0.041 mM | O=C(O)c1cc(=O)c2c(OCC(O)COc3cccc4oc(C(=O)O)cc(=O)c34)cccc2o1 [DSCG, disodium cromoglycate]
